In paper PMC6133161, “Thiazoles with cyclopropyl fragment as antifungal, anticonvulsant, and anti-Toxoplasma gondii agents: synthesis, toxicity evaluation, and molecular docking study” (Medicinal Chemistry Research, 2018):
In brackets after ≈: the same amount, converted by molar mass.

Tests used:
C. krusei = assay: Broth microdilution MIC/MFC, clinical isolate; type: cell-based; settings: Pichia kudriavzevii, C. krusei clinical strain; for MFC: read-out: MFC; for MIC: read-out: MIC
Source text: (§1) In the study of antifungal activity of the compounds 3a–3j, 15 clinical strains of different species of yeasts from Candida species, namely C. albicans, C. dubliniensis C. famata, C. inconspicua, C. krusei, C. tropicalis, C. glabrata, C. lambica, C. kefyr, C. lusitaniae, C. parapsilosis, C. guilliermondii, C. lusitaniae, C. pulcherrima and C. sake were also used. These fungi were isolated by the author (from Department of Pharmaceutical Microbiology of Medical University in Lublin, Poland) from different clinical materials, e.g., from upper respiratory tract of hospitalized patients including cancer patients (i.e., with non-small cell lung cancer or hematological malignancies). Some patients were after pre-operative or post-operative chemotherapy (treated with etoposide or cis-platin given in doses according to the standard procedures), patients with chronic hepatitis C (undergoing peginterferon and ribavirin therapy or without antiviral therapy), patients with diabetes, elderly people, aged of 65 years old or older, staying in close population, such as a care centre and people staying outside the home care. The Ethical Committee of the Medical University of Lublin approved the study protocol (No. KE-0254/75/2011). The isolates were identified by standard diagnostic methods—biochemical microtest, e.g., API 20C AUX, ID 32C, API Candida (bioMérieux) on the basis of assimilation of various substrates. All the used microbial cultures were first subcultured on nutrient agar or Sabouraud agar for bacteria and fungi, respectively. The RPMI 1640 with MOPS (for fungi) were inoculated with the suspensions of fungal species. Microbial suspensions were prepared in sterile saline (0.85% NaCl) with an optical density of 0.5 McFarland standard scale (Wiegand et al. [2008]). Samples containing examined compounds were dissolved in dimethyl sulfoxide (DMSO). Furthermore, fungal suspensions were put onto Petri dishes with solid media containing 2 mg/ml of the tested compounds followed incubation under appropriate conditions. The inhibition of microbial growth was judged by comparison with a control culture prepared without any sample tested. Nystatin (Sigma) was used as a reference antifungal compound. Subsequently MIC minimal inhibitory concentration (MIC) of the compounds was examined by the microdilution broth method, using their two-fold dilutions in RPMI 1640 broth with MOPS prepared in 96-well polystyrene plates. Final concentrations of the compounds ranged from 1000 to 0.0038 µg/ml. Microbial suspensions were prepared in sterile saline with an optical density of 0.5 McFarland standard. Next fungal suspension was added per each well containing broth and various concentrations of the examined compounds. After incubation, the MIC was assessed spectrophotometric as the lowest concentration of the samples showing complete fungal growth inhibition. Appropriate DMSO, growth and sterile controls were carried out. The medium with no tested substances was used as a control (Wiegand et al. [2008]). The minimal fungicidal concentration (MFC) are defined as the lowest concentration of the compounds that is required to kill a particular fungal species. MFC was determined by removing the culture using for MIC determinations from each well and spotting onto appropriate agar medium. The plates were incubated. The lowest compounds concentration with no visible growth observed was assessed as a fungicidal concentration. All the experiments were repeated three times and representative data are presented.
(§2) The MFC/MIC ratios were calculated in order to determine fungicidal (MFC/MIC ≤ 4) or fungistatic (MFC/MIC > 4) effect of the tested compounds (O’Donnell et al. [2010]).

C. sake = assay: Broth microdilution MIC/MFC, clinical isolate; type: cell-based; settings: Fermentozyma sake, C. sake clinical strain; for MFC: read-out: MFC; for MIC: read-out: MIC
Source text: as §1, §2

C. lambica = assay: Broth microdilution MIC/MFC, clinical isolate; type: cell-based; settings: Pichia fermentans, C. lambica clinical strain; for MFC: read-out: MFC; for MIC: read-out: MIC
Source text: as §1, §2

C. pulcherrima = assay: Broth microdilution MIC/MFC, clinical isolate; type: cell-based; settings: C. pulcherrima clinical strain; for MFC: read-out: MFC; for MIC: read-out: MIC
Source text: as §1, §2

C. inconspicua = assay: Broth microdilution MIC/MFC, clinical isolate; type: cell-based; settings: Pichia inconspicua, C. inconspicua clinical strain; for MFC: read-out: MFC; for MIC: read-out: MIC
Source text: as §1, §2

C. famata = assay: Broth microdilution MIC/MFC, clinical isolate; type: cell-based; settings: Debaryomyces hansenii, C. famata clinical strain; for MFC: read-out: MFC; for MIC: read-out: MIC
Source text: as §1, §2

C. parapsilosis = assay: Broth microdilution MIC/MFC, clinical isolate; type: cell-based; settings: Lodderomyces parapsilosis, C. parapsilosis clinical strain; for MFC: read-out: MFC; for MIC: read-out: MIC
Source text: as §1, §2

C. kefyr = assay: Broth microdilution MIC/MFC, clinical isolate; type: cell-based; settings: Kluyveromyces marxianus, C. kefyr clinical strain; for MFC: read-out: MFC; for MIC: read-out: MIC
Source text: as §1, §2

C. dubliniensis = assay: Broth microdilution MIC/MFC, clinical isolate; type: cell-based; settings: Candida dubliniensis, C. dubliniensis clinical strain; for MFC: read-out: MFC; for MIC: read-out: MIC
Source text: as §1, §2

C. albicans = assay: Broth microdilution MIC/MFC, clinical isolate; type: cell-based; settings: Candida albicans, C. albicans clinical strain; for MFC: read-out: MFC; for MIC: read-out: MIC
Source text: as §1, §2

C. lusitaniae = assay: Broth microdilution MIC/MFC, clinical isolate; type: cell-based; settings: Clavispora lusitaniae, C. lusitaniae clinical strain; for MFC: read-out: MFC; for MIC: read-out: MIC
Source text: as §1, §2

C. tropicalis = assay: Broth microdilution MIC/MFC, clinical isolate; type: cell-based; settings: Candida tropicalis, C. tropicalis clinical strain; for MFC: read-out: MFC; for MIC: read-out: MIC
Source text: as §1, §2

C. guilliermondii = assay: Broth microdilution MIC/MFC, clinical isolate; type: cell-based; settings: Meyerozyma guilliermondii, C. guilliermondii clinical strain; for MFC: read-out: MFC; for MIC: read-out: MIC
Source text: as §1, §2

C. glabrata = assay: Broth microdilution MIC/MFC, clinical isolate; type: cell-based; settings: Nakaseomyces glabratus, C. glabrata clinical strain; for MFC: read-out: MFC; for MIC: read-out: MIC
Source text: as §1, §2

[1] = system: Toxoplasma gondii RH strain; assay: [3H]-uracil incorporation assay in VERO host cells; settings: Toxoplasma gondii, Vero; for activity at 0.98 µg/mL / activity at 1.95 µg/mL / activity at 3.91 µg/mL / activity at 7.81 µg/mL / activity at 15.63 µg/mL / activity at 20 µg/mL / activity at 25 µg/mL / activity at 31.25 µg/mL: read-out: Proliferation of Toxoplasma gondii RH strain ± SD; for IC50: read-out: IC50 anti-Tg

MIC (C. krusei) [µg/mL]	MIC (C. sake) [µg/mL]	MIC (C. lambica) [µg/mL]	MIC (C. pulcherrima) [µg/mL]	MIC (C. inconspicua) [µg/mL]	MIC (C. famata) [µg/mL]	MIC (C. parapsilosis) [µg/mL]	MIC (C. kefyr) [µg/mL]	MIC (C. dubliniensis) [µg/mL]	MIC (C. albicans) [µg/mL]	Structure (SMILES)	MFC (C. krusei) [µg/mL]	MFC (C. sake) [µg/mL]	MFC (C. lambica) [µg/mL]	MFC (C. pulcherrima) [µg/mL]	MFC (C. inconspicua) [µg/mL]	MFC (C. famata) [µg/mL]	MFC (C. parapsilosis) [µg/mL]	MFC (C. kefyr) [µg/mL]	MFC (C. dubliniensis) [µg/mL]	MFC (C. albicans) [µg/mL]	also measured
0.03 (≈ 0.107 µM)	0.48 (≈ 1.72 µM)	125 (≈ 448 µM)	250 (≈ 895 µM)	0.48 (≈ 1.72 µM)	7.81 (≈ 28 µM)	0.98 (≈ 3.51 µM)	31.2 (≈ 112 µM)	0.24 (≈ 0.859 µM)	0.48 (≈ 1.72 µM)	Fc1ccc(-c2csc(N/N=C/C3CC3)n2)c(F)c1 [Compound 3g, (E)-2-(2-(Cyclopropylmethylene)hydrazinyl)-4-(2,4-difluorophenyl)thiazole]	0.48 (≈ 1.72 µM)	3.91 (≈ 14 µM)	> 1000	> 1000	1.98 (≈ 7.09 µM)	62.5 (≈ 224 µM)	1.95 (≈ 6.98 µM)	31.2 (≈ 112 µM)	0.48 (≈ 1.72 µM)	1.95 (≈ 6.98 µM)	MFC (C. lusitaniae): 1.95 µg/mL (≈ 6.98 µM); MIC (C. lusitaniae): 0.48 µg/mL (≈ 1.72 µM); MFC (C. tropicalis): 0.98 µg/mL (≈ 3.51 µM); MIC (C. tropicalis): 0.06 µg/mL (≈ 0.215 µM); MFC (C. guilliermondii): 31.2 µg/mL (≈ 112 µM); MIC (C. guilliermondii): 7.81 µg/mL (≈ 28 µM); MFC (C. glabrata): > 1000 µg/mL; MIC (C. glabrata): 15.6 µg/mL (≈ 55.9 µM); activity at 0.98 µg/mL [1]: 105 ± 9.98%; activity at 1.95 µg/mL [1]: 91.8 ± 1.12%; activity at 3.91 µg/mL [1]: 81.4 ± 1.6%; activity at 7.81 µg/mL [1]: 78.6 ± 4.6%; activity at 15.63 µg/mL [1]: 58.1 ± 2.94%; activity at 20 µg/mL [1]: 60.9 ± 3.81%
0.48 (≈ 1.79 µM)	0.98 (≈ 3.65 µM)	125 (≈ 466 µM)	62.5 (≈ 233 µM)	0.24 (≈ 0.894 µM)	1.95 (≈ 7.27 µM)	1.95 (≈ 7.27 µM)	7.81 (≈ 29.1 µM)	0.48 (≈ 1.79 µM)	0.98 (≈ 3.65 µM)	N#Cc1ccc(-c2csc(N/N=C/C3CC3)n2)cc1 [Compound 3h, (E)-4-(2-(2-(Cyclopropylmethylene)hydrazinyl)thiazol-4-yl)benzonitrile]	7.81 (≈ 29.1 µM)	125 (≈ 466 µM)	> 1000	> 1000	0.48 (≈ 1.79 µM)	3.91 (≈ 14.6 µM)	31.2 (≈ 116 µM)	125 (≈ 466 µM)	0.98 (≈ 3.65 µM)	15.6 (≈ 58.2 µM)	MFC (C. lusitaniae): 0.98 µg/mL (≈ 3.65 µM); MIC (C. lusitaniae): 0.24 µg/mL (≈ 0.894 µM); MFC (C. tropicalis): 0.98 µg/mL (≈ 3.65 µM); MIC (C. tropicalis): 0.03 µg/mL (≈ 0.112 µM); MFC (C. guilliermondii): 3.91 µg/mL (≈ 14.6 µM); MIC (C. guilliermondii): 0.48 µg/mL (≈ 1.79 µM); MFC (C. glabrata): > 1000 µg/mL; MIC (C. glabrata): 125 µg/mL (≈ 466 µM); IC50 [1]: 30.1 µg/mL (≈ 112 µM); activity at 0.98 µg/mL [1]: 86.1%; activity at 1.95 µg/mL [1]: 83.3 ± 3.9%; activity at 3.91 µg/mL [1]: 79.6 ± 1.15%; activity at 7.81 µg/mL [1]: 75.5 ± 4.89%; activity at 15.63 µg/mL [1]: 65 ± 3.28%; activity at 20 µg/mL [1]: 56.6 ± 1%; activity at 25 µg/mL [1]: 53.9 ± 6.64%; activity at 31.25 µg/mL [1]: 43.81 ± 0.06%
0.06 (≈ 0.208 µM)	0.24 (≈ 0.832 µM)	250 (≈ 867 µM)	7.81 (≈ 27.1 µM)	0.98 (≈ 3.4 µM)	1.95 (≈ 6.76 µM)	0.48 (≈ 1.66 µM)	125 (≈ 434 µM)	0.24 (≈ 0.832 µM)	0.24 (≈ 0.832 µM)	O=[N+]([O-])c1ccc(-c2csc(N/N=C/C3CC3)n2)cc1 [Compound 3j, (E)-2-(2-(Cyclopropylmethylene)hydrazinyl)-4-(4-nitrophenyl)thiazole]	0.12 (≈ 0.416 µM)	0.98 (≈ 3.4 µM)	> 1000	> 1000	1.95 (≈ 6.76 µM)	31.2 (≈ 108 µM)	1.95 (≈ 6.76 µM)	> 1000	0.48 (≈ 1.66 µM)	0.48 (≈ 1.66 µM)	MFC (C. lusitaniae): 0.98 µg/mL (≈ 3.4 µM); MIC (C. lusitaniae): 0.48 µg/mL (≈ 1.66 µM); MFC (C. tropicalis): 0.015 µg/mL (≈ 0.052 µM); MIC (C. tropicalis): 0.015 µg/mL (≈ 0.052 µM); MFC (C. guilliermondii): 0.98 µg/mL (≈ 3.4 µM); MIC (C. guilliermondii): 0.24 µg/mL (≈ 0.832 µM); MFC (C. glabrata): > 1000 µg/mL; MIC (C. glabrata): 125 µg/mL (≈ 434 µM); IC50 [1]: 21.8 µg/mL (≈ 75.5 µM); activity at 0.98 µg/mL [1]: 91 ± 2.47%; activity at 1.95 µg/mL [1]: 94.44 ± 0.34%; activity at 3.91 µg/mL [1]: 97.1 ± 4.63%; activity at 7.81 µg/mL [1]: 96.7 ± 3.29%; activity at 15.63 µg/mL [1]: 60 ± 7.86%; activity at 20 µg/mL [1]: 58.8 ± 1.67%; activity at 25 µg/mL [1]: 40.3 ± 1.53%; activity at 31.25 µg/mL [1]: 35.1 ± 424%
